For experiment [1], the target named is Endoplasmin (Homo sapiens, UniProt P14625).
The target of experiment [2] is Heat shock protein HSP 90-alpha (Homo sapiens, UniProt P07900).

Here are results for 36 molecules from ChEMBL document CHEMBL3804818 (J Med Chem, 2016).

Broadly, the Kd is the free concentration of one partner at which half of the binding sites on the other are occupied at equilibrium, for simple one-to-one binding.

Chain of Endoplasmin (P14625 whole entry): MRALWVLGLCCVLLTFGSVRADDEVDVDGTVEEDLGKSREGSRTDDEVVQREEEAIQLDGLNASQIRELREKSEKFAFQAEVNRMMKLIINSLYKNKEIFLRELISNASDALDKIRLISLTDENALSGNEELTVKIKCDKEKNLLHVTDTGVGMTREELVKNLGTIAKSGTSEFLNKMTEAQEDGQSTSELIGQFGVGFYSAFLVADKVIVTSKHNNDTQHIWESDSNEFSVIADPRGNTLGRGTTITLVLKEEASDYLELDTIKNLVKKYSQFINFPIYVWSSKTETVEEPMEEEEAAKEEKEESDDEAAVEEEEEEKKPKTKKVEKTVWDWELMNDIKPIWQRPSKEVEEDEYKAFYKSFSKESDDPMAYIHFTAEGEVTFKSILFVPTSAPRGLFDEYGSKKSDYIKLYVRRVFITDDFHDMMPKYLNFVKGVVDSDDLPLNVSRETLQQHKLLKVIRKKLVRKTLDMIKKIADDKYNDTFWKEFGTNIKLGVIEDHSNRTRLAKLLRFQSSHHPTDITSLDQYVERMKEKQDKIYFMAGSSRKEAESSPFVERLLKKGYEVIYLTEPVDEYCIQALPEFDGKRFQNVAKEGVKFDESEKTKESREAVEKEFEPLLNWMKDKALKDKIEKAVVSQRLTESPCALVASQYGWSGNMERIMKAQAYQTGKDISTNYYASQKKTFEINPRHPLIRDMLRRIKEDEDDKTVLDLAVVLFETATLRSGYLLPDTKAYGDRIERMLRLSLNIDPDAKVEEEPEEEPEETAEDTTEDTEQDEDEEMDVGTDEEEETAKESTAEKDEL

Consider `COC(=O)c1c(O)cc(O)c(Cl)c1CCc1nccn1Cc1cncnc1`, for which the figures for the Kd in experiment [1] and in experiment [2] were 9180 nM and 9.92 µM, respectively.

For the molecule `COC(=O)c1c(O)cc(O)c(Cl)c1CCc1nccn1Cc1ccccc1F`, the Kd was determined as 1360 nM in experiment [1] and 11.4 µM in experiment [2].

Take `COC(=O)c1c(O)cc(O)c(Cl)c1CCc1nccn1Cc1ccc(C)cc1`: the Kd in experiment [1] is 730 nM; in experiment [2] it was 25.2 µM.

Turning to `C#Cc1ccc(Cn2ccnc2CCc2c(Cl)c(O)cc(O)c2C(=O)OC)cc1`, the results for the Kd in experiment [1] and in experiment [2] were 1400 nM and 15.8 µM, respectively.

As for `COC(=O)c1c(O)cc(O)c(Cl)c1CCc1nccn1Cc1ccc(Cl)s1`, the Kd in experiment [1] worked out at 930 nM; in experiment [2], 34.7 µM.

`COC(=O)c1c(O)cc(O)c(Cl)c1CCc1nccn1Cc1ccccc1OC`: the Kd in experiment [1] is 1300 nM; in experiment [2], 53.9 µM.

The molecule `COC(=O)c1c(O)cc(O)c(Cl)c1CCc1nccn1Cc1ccc(F)cc1` gave a Kd in experiment [1] of 3200 nM. That is a single-digit micromolar value.

Take `COC(=O)c1c(O)cc(O)c(Cl)c1CCc1nccn1Cc1ccc(C)o1`: in experiment [1], the Kd was 650 nM. This Kd lies about 4.9-fold lower than the previous one.

With `COC(=O)c1c(O)cc(O)c(Cl)c1CCc1nccn1Cc1ccccn1`, the Kd was found to be 4940 nM in experiment [1] and 9.92 µM in experiment [2].

As to `COC(=O)c1c(O)cc(O)c(Cl)c1CCc1nccn1Cc1oc(C)cc1C`, the Kd in experiment [1] is 350 nM; in experiment [2], 9.2 µM.

`COC(=O)c1c(O)cc(O)c(Cl)c1CCc1nccn1Cc1ccoc1`: the values for the Kd in experiment [1] and in experiment [2] were 1500 nM and 3.77 µM, respectively.

For `COC(=O)c1c(O)cc(O)c(Cl)c1CCc1nccn1Cc1ccc(OC)cc1`, the Kd in experiment [1] is 6900 nM; in experiment [2], above 150 µM.

The molecule `COC(=O)c1c(O)cc(O)c(Cl)c1CCc1nccn1Cc1ccccc1Br` gave a Kd in experiment [1] of 1600 nM.

In the case of `C=Cc1ccsc1Cn1ccnc1CCc1c(Cl)c(O)cc(O)c1C(=O)OC`, the Kd came out at 750 nM in experiment [1] and 36.7 µM in experiment [2].

In turn, `C=Cc1ccoc1Cn1ccnc1CCc1c(Cl)c(O)cc(O)c1C(=O)OC` returned a Kd in experiment [1] of 2360 nM.

Molecule `COC(=O)c1c(O)cc(O)c(Cl)c1CCc1nccn1Cc1cccnc1` came in with a Kd in experiment [1] of 4040 nM.

Regarding `COC(=O)c1c(O)cc(O)c(Cl)c1CCc1nccn1Cc1ccc(C)cc1OC`, the Kd in experiment [1] was found to be 2350 nM; in experiment [2], 72.5 µM.

In the case of `COC(=O)c1c(O)cc(O)c(Cl)c1CCc1nccn1Cc1cccs1`, the Kd in experiment [1] was 470 nM; in experiment [2], 3.92 µM.

With `COC(=O)c1c(O)cc(O)c(Cl)c1CCc1nccn1Cc1cccc(F)c1`, the results for the Kd in experiment [1] and in experiment [2] were 1530 nM and 9.63 µM, respectively.

Turning to `CCCOc1ccccc1Cn1ccnc1CCc1c(Cl)c(O)cc(O)c1C(=O)OC`, the Kd is 250 nM in experiment [1] and 2.3 µM in experiment [2].

Take `COC(=O)c1c(O)cc(O)c(Cl)c1CCc1nccn1Cc1cc(Cl)cs1`: the results for the Kd in experiment [1] and in experiment [2] were 670 nM and 1.8 µM, respectively.

As to `CCc1ccccc1Cn1ccnc1CCc1c(Cl)c(O)cc(O)c1C(=O)OC`, the Kd was 810 nM in experiment [1] and 38.8 µM in experiment [2].

In the case of `COC(=O)c1c(O)cc(O)c(Cl)c1CCc1nccn1Cc1ccc(C#N)cc1`, the Kd came to 4700 nM in experiment [1] and 18.2 µM in experiment [2].

For `COC(=O)c1c(O)cc(O)c(Cl)c1CCc1nccn1Cc1ccccc1Cl`, the Kd in experiment [1] stood at 1390 nM; in experiment [2], 8.47 µM.

In experiment [1], `COC(=O)c1c(O)cc(O)c(Cl)c1CCc1nccn1Cc1ccc(Cl)cc1` had a Kd of 810 nM. This counts as sub-micromolar.

Take `COC(=O)c1c(O)cc(O)c(Cl)c1CCc1nccn1Cc1ccno1`: the Kd in experiment [1] was found to be 400 nM; in experiment [2], 0.81 µM.

With `COC(=O)c1c(O)cc(O)c(Cl)c1CCc1nccn1Cc1ccccc1OC(C)C`, the Kd in experiment [1] was found to be 90 nM; in experiment [2], 0.24 µM.

Take `COC(=O)c1c(O)cc(O)c(Cl)c1CCc1nccn1Cc1sccc1Cl`: the Kd in experiment [1] amounted to 760 nM; in experiment [2], 3.16 µM.

As to `COC(=O)c1c(O)cc(O)c(Cl)c1CCc1nccn1Cc1ccco1`, the Kd in experiment [1] was 550 nM; in experiment [2], 5.91 µM.

As for `COC(=O)c1c(O)cc(O)c(Cl)c1CCc1nccn1Cc1ccsc1`, the Kd worked out at 2140 nM in experiment [1] and 6.54 µM in experiment [2].

As for `COC(=O)c1c(O)cc(O)c(Cl)c1CCc1nccn1Cc1ccccc1C(F)(F)F`, the values for the Kd in experiment [1] and in experiment [2] were 1530 nM and 19.3 µM, respectively.

Take `COC(=O)c1c(O)cc(O)c(Cl)c1CCc1nccn1Cc1ccc(C)s1`: the values for the Kd in experiment [1] and in experiment [2] were 680 nM and 5.13 µM, respectively.

As for `COC(=O)c1c(O)cc(O)c(Cl)c1CCc1nccn1Cc1nccs1`, the Kd in experiment [1] worked out at 2500 nM; in experiment [2], 16 µM.

As to `CCOc1ccccc1Cn1ccnc1CCc1c(Cl)c(O)cc(O)c1C(=O)OC`, the Kd in experiment [1] was determined as 200 nM; in experiment [2], 8.1 µM.

With `COC(=O)c1c(O)cc(O)c(Cl)c1CCc1nccn1Cc1ccccc1C`, the figures for the Kd in experiment [1] and in experiment [2] were 3000 nM and 68.1 µM, respectively.

For `CCc1ccsc1Cn1ccnc1CCc1c(Cl)c(O)cc(O)c1C(=O)OC`, the Kd is 720 nM in experiment [1] and 6.94 µM in experiment [2].
